Reference: patent publication US7259144B2, “Methods for diagnosing and treatment of hyperphosphatemic conditions using FGF20 polypeptides” (CuraGen Corporation, priority 2003, dated 2007)

Assays:
[1] = tested on: Caco2 cells; assay: Caco2 cell proliferation (3H thymidine incorporation) with FGF-20 and kinase inhibitors; assay type: cell-based; settings: inhibitor added 1 hr before FGF-20 (100 ng/ml), PD098059 1, 5, 20, 40 μM, SB203580 1, 10, 20 μM
Description: FIG. 7 depicts effect of kinase inhibitors in the proliferation of Caco2 cells. Caco2 cells were incubated with FGF-20 (100 ng/ml) in the presence of various concentrations (1, 5, 20 and 40 μM) of PD098059, inhibitor of MEK which is upstream of ERK or various concentrations (1, 10, 20 μM) of SB203580, inhibitor of p38 MAPK inhibitor.
In addition to the above results, MEK inhibitor PD098059 (1, 5, 20, and 40μM CALBIOCHEM, CA), and p38 MAPK inhibitor SB203580 (1,10,20 μM CALBIOCHEM, CA) were added to the Caco2 cell cultures 1 hr before FGF-20 treatment. Cellular proliferation was tested by standard 3H thymidine incorporation assay known in the art.

[2] = Serum phosphate levels after CG53135-05 treatment, rat model; assay type: in vivo; settings: slow bolus i.v. once daily, 0.05, 5, 50 mg/kg, dose-dependent (FIG. 1)
Description: (§1) To evaluate the role of FGF20 in reduction of phosphate levels, two different animal models (rat and rhesus monkeys) were tested for serum phosphates following treatment with FGF20. Recombinant human FGF20 and the serum phosphate levels were measured. General protocols for the rat and Rhesus monkey models are outlined in the following Tables 1 (for the rat) and 2 (for the Rhesus monkey) below:
(§2) Both animal groups were dosed via a slow bolus intravenous injection in the tail vein, once daily for 14 days. The first day of dosing was designated as study day (“SD”) 1. Animals were dosed through SD 14.

[3] = tested on: Caco2 cells; assay: Expression of signal transducing kinases in Caco2 cells with FGF-20; assay type: cell-based
Description: FIG. 4 depicts effect of FGF20 (CG53135) in stimulation of kinases in Caco2 cells. Expression of signal transducing kinases was analyzed after incubation of Caco2 cells with FGF-20 (100 ng/ml) for different time points (10, 30, 60 mins).
(§3) FIG. 6 depicts Effect of FGF-20 on expression of kinases in intestinal epithelial cells. Caco2 cells were incubated with FGF-20 (100 ng/ml) for 10, 30, 60 minutes and expression of p-Elk-1, p-ATF-2 and p-PKC was analyzed. Similarly, HT-29 cells were incubated with FGF-20 (100 ng/ml) for 10, 30, 60 minutes and expression of C-Fos and C-Jun was analyzed.
(§4) MAPK-dependent mechanism may be involved in the regulation of phosphate uptake by FGF signaling. To test this hypothesis, various kinases were tested for their expression in the presence of 100 ng/ml of FGF-20, in Caco2 cells. […] In HT-29 cells, C-Fos and C-Jun were induced, when cultured with FGF-20 (FIG. 6).

[4] = tested on: HT-29 cells; assay: Expression of C-Fos and C-Jun in HT-29 cells with FGF-20; assay type: cell-based; settings: 100 ng/ml, 10, 30, 60 minutes
Description: as §3, §4

[5] = Serum phosphate levels after CG53135-05 treatment, Rhesus monkey model; assay type: in vivo; settings: slow bolus i.v. once daily, 1, 10 mg/kg, dose-dependent (FIG. 2)
Description: as §1, §2

[6] = tested on: NIH 3T3 cells; assay: Induction of DNA synthesis (BrdU incorporation) in NIH 3T3 cells; assay type: cell-based; settings: serum-starved NIH 3T3 cells; 18 h factor, 4 h BrdU incorporation
Description: Receptor Specificity NIH 3T3 cells were cultured in 96-well plates to approximately 100% confluence, washed and fed with DMEM without supplements (Life Technologies), and incubated for 24 h. Recombinant CG53135-01 or control protein was then added to the cells for 18 h. Control proteins used were aFGF (positive control) and platelet derived growth factor-BB (PDGFBB) (negative control). To analyze the effect of soluble FGFRs on CG53135-05 activity, recombinant CG53135-05, aFGF, or PDGF-BB (final concentrations of 10, 5 and 3 ng/mL, respectively), were mixed with soluble receptors (final concentrations of 0.2, 1 and 5 ug/mL), and incubated for 30 min at 37° C. prior to addition to serum-starved NIH 3T3 cells. Factor concentrations represent the amount of ligand needed to generate a half maximal BrdU response in NIH 3T3 cells. Soluble FGFRs were Fc chimeras of the following receptor forms (FGFR1β(IIIc); FGFR2β(IIIb); FGFR2α(IIIb); FGFR2α(IIIc); FGFR3α(IIIc); FGFR4) and were obtained from R&D Systems (Minneapolis, Minn.). The BrdU assay was performed according to the manufacturer's specifications (Roche Molecular Biochemicals, Indianapolis, Ind.) using a 4 h BrdU incorporation time.

[7] = tested on: OK cells; assay: Phosphate uptake in OK cells; assay type: cell-based, opossum; settings: at 50 ng/ml
Description: FIG. 8 depicts effect of FGF9 protein in phosphate transport. OK cells were treated with various concentrations of FGF9 protein and phosphate uptake was measured as noted in Example 6.
FIG. 9 depicts effect of FGF10 protein in phosphate transport. OK cells were treated with various concentrations of FGF10 protein and phosphate uptake was measured as noted in Example 6.
Measurement of phosphate transport is performed in cultured renal proximal tubular epithelial cell line using opossum kidney (OK) cells, in the presence of FGF-20 (CG53135-05). Briefly, OK cells are grown at 37° C. in Dulbecco's modified Eagle's medium with 10% fetal calf serum and seeded in multi-well dishes (6, 24, 96 well dishes). The phosphate uptake in OK cells is determined according to the method described by Hafdi et al (Biochem. J. 1996, 320:615-621).
Role of FGF9 and FGF10 in phosphate uptake was measured by the method described in Biochem. J. 1996, 320:615-621.

Molecule: COc1cccc(-c2cc(=O)c3ccccc3o2)c1N [PD098059]
- cellular proliferation (3H thymidine incorporation) [1]: decrease in cellular proliferation

Molecule: C[S+]([O-])c1ccc(-c2nc(-c3ccncc3)c(-c3ccc(F)cc3)[nH]2)cc1 (stereo not drawn) [SB203580]
- cellular proliferation (3H thymidine incorporation) [1]: decrease in cellular proliferation

Molecule: CG53135-05: Recombinant human fibroblast growth factor 20 produced in E. coli; Swiss-Prot Q9NP95; SEQ ID NO:1
- serum phosphate levels [2]: Statistically significant reductions
- expression of other kinases tested ([3]; 100 ng/ml, 10, 30, 60 mins): no other kinase tested, showed any significant induction
- phosphorylated MAPK (p-p38MAPK) expression ([3]; 100 ng/ml, 10, 30, 60 mins): induced
- expression of phosphorylated ATF-2 ([3]; 100 ng/ml, 10, 30, 60 minutes): increased expression
- expression of phosphorylated Elk-1 ([3]; 100 ng/ml, 10, 30, 60 minutes): increased expression
- expression of phosphorylated Protein Kinase C ([3]; 100 ng/ml, 10, 30, 60 minutes): minimal induction
- C-Fos expression [4]: induced
- C-Jun expression [4]: induced
- serum phosphate levels [5]: Statistically significant reductions
- amount of ligand needed to generate a half maximal BrdU response [6]: 10 ng/mL

Molecule: aFGF: positive control protein; factor known to interact with all of the FGFR's under analysis [reference compound]
- amount of ligand needed to generate a half maximal BrdU response [6]: 5 ng/mL

B1: PDGF-BB: platelet derived growth factor-BB, negative control protein (protein, UniProt P01127 82-190, looked up)
Platelet-derived growth …: SLGSLTIAEPAMIAECKTRTEVFEISRRLIDRTNANFLVWPPCVEVQRCSGCCNNRNVQCRPTQVQLRPVQVRKIEIVRKKPIFKKATVTLEDHLACKCETVAAARPVT
modifications: homodimer
notes: platelet derived growth factor-BB, negative control protein
- amount of ligand needed to generate a half maximal BrdU response [6]: 3 ng/mL

B2: FGF10: human FGF 10 protein, Swiss-Prot Accession No: O15520 (protein, UniProt O15520 38-208, looked up)
Fibroblast growth factor 10: QALGQDMVSPEATNSSSSSFSSPSSAGRHVRSYNHLQGDVRWRKLFSFTKYFLKIEKNGKVSGTKKENCPYSILEITSVEIGVVAVKAINSNYYLAMNKKGKLYGSKEFNNDCKLKERIEENGYNTYASFNWQHNGRQMYVALNGKGAPRRGQKTRRKNTSAHFLPMVVHS
- phosphate transport [7]: more efficient in inhibiting the phosphate transport
